# Experimental data as given in publication PMC10266688 (PLOS ONE, 2023).
# Tests used:
# [1] = test system: TC1-OVA cells; assay: Antigen presentation (H-2Kb/[…]) by TC1-OVA cells, flow cytometry; type: cell-based, mouse; details: 0.25 μM, 12 h
# Protocol: TC1 cells stably expressing Ovalbumin (TC1-OVA) were plated (125,000 cells/well) in a 6 well plate in 2 mL RPMI complete medium.
# C) TC1-OVA cells were plated (125,000 cells/well) in a 6 well plate in 2 mL/well in complete medium.
# [2] = Repeat IP dosing tolerability in Balb/c and C57BL/6 mice; type: in vivo; details: female Balb/c and C57BL/6 mice
# [3] = test system: HMW polyUb proteins in ES2 cells; assay: Western blot for polyubiquitinated proteins; details: by 12 h
# [4] = test system: proteasome (4UbFL reporter); assay: In vivo 4UbFL proteasome reporter in electroporated leg muscle, CD1 mice; parameters: species or system mouse
# Protocol: A patch of CD1 mouse leg was shaved of hair and 10 μg 4Ub-FL plasmid in 20 μL of PBS was injected into the quadriceps femoralis muscle followed immediately by injection of the 2 Needle Array to 5 mm depth encompassing the injection site and square wave EP (ElectroSquarePorator 833, BTX-2 Needle array 5mm gap, Harvard apparatus) delivered as eight pulses at 106V for 20 ms with 200 ms intervals. One day post-EP, mice were anesthetized with isoflurane, injected IP with luciferin (0.3 mg in 100 μL water) and optical imaging was performed to determine basal level luciferase expression. Images were acquired for 10 min with a Xenogen IVIS 200 (Caliper, Hopkinton, MA). Equally sized areas were analyzed using Living Image 2.20 software.
# Two days later, luciferin was injected IP and the baseline enzymic activity of luciferase in the transduced muscle tissue was visualized as bioluminescence within this region of interest (ROI) using an IVIS imager. […] After 4h, 24h and 48h the mice were again injected with luciferin, imaged and bioluminescence was quantified (Fig 5B).
# A) ES2 cells stably transduced with the 4UbFL reporter plasmid were treated with compounds at indicated doses for 4 h. The cells were then washed, lysed and their luminescence measured by a luminometer after addition of luciferin. B) Female CD1 mice electroporated with 4UbFL plasmid in their leg muscle. After 48 h, the mice were injected with luciferin, imaged by IVIS for their basal bioluminescence and randomized into two groups of five. […] D) Up284 tissue distribution. […] Up284 levels in tissue samples were analyzed by HPLC. E) Up284 pharmacokinetics. […] Blood was collected at indicated time points thereafter and analyzed for Up284 levels by HPLC.
# [5] = target: T1, 42kDa cellular protein (RPN13) (Homo sapiens, UniProt Q16186); assay: Competition for RA190B binding in HeLa cell lysate; details: HeLa lysate pre-treated with compound (5 μM) 45 min 4°C, then RA190B (20 μM)
# T1 construct: endogenous in cells; host or cells: HeLa cell lysate
# T1 sequence (Q16186 2-407): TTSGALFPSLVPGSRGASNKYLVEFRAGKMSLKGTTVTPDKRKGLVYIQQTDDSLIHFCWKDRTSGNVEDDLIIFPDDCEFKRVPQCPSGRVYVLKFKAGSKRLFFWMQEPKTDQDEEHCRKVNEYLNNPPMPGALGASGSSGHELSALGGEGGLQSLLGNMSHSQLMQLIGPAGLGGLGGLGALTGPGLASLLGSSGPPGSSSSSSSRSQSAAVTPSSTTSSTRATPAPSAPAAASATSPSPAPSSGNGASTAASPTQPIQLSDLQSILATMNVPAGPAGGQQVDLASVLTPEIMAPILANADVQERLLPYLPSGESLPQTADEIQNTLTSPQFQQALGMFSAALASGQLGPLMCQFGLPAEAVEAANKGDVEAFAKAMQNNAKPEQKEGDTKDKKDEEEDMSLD
# Protocol: NEM (1 mM) used as positive control.
# [6] = test system: proteasome (4UbFL reporter); assay: 4UbFL reporter in ES2-4UbFL tumor and leg muscle of nude mice; type: in vivo, mouse; details: single IP dose Up284 20mg/kg or bortezomib 0.75 mg/kg, 4 h and 24 h
# Protocol: A-C) Female nude mice were inoculated IP with ES2-luc cells, a human ovarian cancer line expressing luciferase. […] The IP tumor tissue and electroporated normal muscle tissue, being spatially distinct, were identified with separate regions of interest (ROI) after simultaneous imaging with IVIS.
# Briefly mice were inoculated IP with ES2 cells stably expressing 4UbFL. After 48 h, the mice were injected with luciferin, imaged and then randomized into 3 groups (n = 5/group). Next, leg muscle of each mouse was electroporated with 4UbFL plasmid (considered as normal tissue). After 48 h (i.e. day 4) the mice were re-imaged and basal bioluminescence (0 h) was separately measured in the leg muscle and peritoneal ROIs.
smiles,measurement,setting,value
N#Cc1ccc(/C=C2/C(=O)/C(=C/c3ccc(C#N)cc3)C23CCNCC3)cc1 [Up284],MHC class I antigen presentation (SIINFEKL on H-2Kb),[1],enhanced MHC class I antigen presentation
same,tolerability of 60 mg/kg IP every third day,[2],toxic
same,MTD,"[2]; mouse, in vivo, ip, read-out: MTD after 3 doses, IP delivery every third day",40 mg/kg
same,accumulation of HMW polyUb proteins,[3],profound accumulation
same,"4UbFL reporter stabilization in muscle, PO",[4]; Up284 PO once 40mg/kg vs ixazomib 10 mg/kg,better stabilized the reporter than ixazomib
same,duration of enhanced 4UbFL bioluminescence,[4]; single IP dose 40 mg/kg,> 48 h
same,4UbFL bioluminescence in leg muscle,"[4]; single IP dose 40 mg/kg, 4h, 24h and 48h",significantly enhanced bioluminescence levels
same,competition for RA190B binding to the 42KDa cellular protein,[5],competed
same,4UbFL bioluminescence signal in muscle tissue vs tumor,[6],similarly enhanced the bioluminescence signal
